Results reported in patent US11590139B2, “Substituted aminopurine compounds, compositions thereof, and methods of treatment therewith” (Signal Pharmaceuticals, LLC, priority 2014, dated 2023).
Read-outs that look alike come from different tables or passages of the source.

System: Lox-IMVI melanoma cell line
Assay: Lox-IMVI anti-proliferative assay (growth inhibition, Cell Titer-Glo)
Type: cell-based, human
Details: Homo sapiens
Procedure, shortened: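 RPMI/10% FBS; cmpd 0.5 nM–10 μM, 3-fold ×10, duplicate, 0.2% DMSO final; 72 h, 37 °C, 5% CO2. ATP-luminescence readout at t0 and 72 h. IC50 = 50% of DMSO control, 4-parameter logistic fit.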

[1] = IC50 activity level in the cell-based Lox-IMVI anti-proliferative assay, read-out: Activity
[2] = Lox-IMVI anti-proliferative assay, IC50 activity level, read-out: Activity
[3] = Lox-IMVI melanoma cell line, anti-proliferative assay, read-out: Activity (IC50 activity level)

IC50 [1] [nM]	IC50 [2] [nM]	Compound	also measured
> 1000	–	CC[C@@H](CO)Nc1ncc2nc(Nc3c(F)cccc3Cl)n([C@H]3CC[C@@H](C(N)=O)CC3)c2n1 [Example 144, (1R,4s)-4-(8-(2-chloro-6-fluorophenylamino)-2-((S)-1-hydroxybutan-2-ylamino)-9H-purin-9-yl)cyclohexanecarboxamide]	–
> 1000	–	NC(=O)[C@H]1CC[C@@H](n2c(Nc3c(F)cc(Cl)cc3Cl)nc3cnc(N[C@H]4CCC[C@@H](O)C4)nc32)CC1 [Example 376, (1R,4s)-4-(8-(2,4-dichloro-6-fluorophenylamino)-2-((1S,3R)-3-hydroxycyclohexylamino)-9H-purin-9-yl)cyclohexanecarboxamide]	–
–	< 250	C[C@]1(C(N)=O)CC[C@@H](n2c(Nc3c(F)cc(Cl)cc3Cl)nc3cnc(NC4CCC(F)(F)CC4)nc32)CC1 [Example 528, (1s,4s)-4-(8-(2,4-dichloro-6-fluorophenylamino)-2-(4,4-difluorocyclohexylamino)-9H-purin-9-yl)-1-methylcyclohexanecarboxamide]	–
< 250	–	N#Cc1cc(F)c(Nc2nc3cnc(NC4CCOCC4)nc3n2[C@H]2CC[C@@H](C(N)=O)CC2)c(F)c1 [Example 309, (1s,4s)-4-(8-(4-cyano-2,6-difluorophenylamino)-2-(tetrahydro-2H-pyran-4-ylamino)-9H-purin-9-yl)cyclohexanecarboxamide]	–
–	500 to 1000	NC(=O)[C@H]1CC[C@@H](n2c(Nc3c(F)cc(F)cc3F)nc3cnc(NC4CCCOCC4)nc32)CC1 (stereo partly shown) [Example 536, (1s,4s)-4-(2-(oxepan-4-ylamino)-8-(2,4,6-trifluorophenylamino)-9H-purin-9-yl)cyclohexanecarboxamide]	–
–	> 1000	NC(=O)[C@H]1CC[C@@H](n2c(Nc3c(F)cc(F)cc3Cl)nc3cnc(N[C@@H]4CCCC[C@H]4O)nc32)CC1 [Example 466, (1S,4s)-4-(8-(2-chloro-4,6-difluorophenylamino)-2-((1R,2R)-2-hydroxycyclohexylamino)-9H-purin-9-yl)cyclohexanecarboxamide]	–
500 to 1000	–	C[C@@H](CO)Nc1ncc2nc(Nc3c(F)cc(F)cc3Cl)n([C@H]3CC[C@@H](C(N)=O)CC3)c2n1 [Example 136, (1R,4s)-4-(8-(2-chloro-4,6-difluorophenylamino)-2-((S)-1-hydroxypropan-2-ylamino)-9H-purin-9-yl)cyclohexanecarboxamide]	–
> 1000	–	Cc1ccc(F)c(Nc2nc3cnc(NC4CCOCC4)nc3n2[C@H]2CC[C@@H](C(N)=O)CC2)c1Cl [Example 91, (1s,4s)-4-(8-(2-chloro-6-fluoro-3-methylphenylamino)-2-(tetrahydro-2H-pyran-4-ylamino)-9H-purin-9-yl)cyclohexanecarboxamide]	–
–	< 250	C[C@@H](CO)Nc1ncc2nc(Nc3c(Cl)cc(Cl)cc3Cl)n([C@H]3CC[C@@](C)(C(N)=O)CC3)c2n1 [Example 549, (1R,4s)-4-(2-((S)-1-hydroxypropan-2-ylamino)-8-(2,4,6-trichlorophenylamino)-9H-purin-9-yl)-1-methylcyclohexanecarboxamide]	–
> 1000	–	CC[C@@H](CO)Nc1ncc2nc(Nc3c(F)cc(F)cc3Cl)n([C@H]3CC[C@@H](C(N)=O)CC3)c2n1 [Example 147, (1R,4s)-4-(8-(2-chloro-4,6-difluorophenylamino)-2-((S)-1-hydroxybutan-2-ylamino)-9H-purin-9-yl)cyclohexanecarboxamide]	–
–	> 1000	C[C@]1(C(N)=O)CC[C@H](n2c(Nc3c(Cl)cc(F)cc3Cl)nc3cnc(NC4CCCC4)nc32)CC1 [Example 493, (1r,4r)-4-(2-(cyclopentylamino)-8-(2,6-dichloro-4-fluorophenylamino)-9H-purin-9-yl)-1-methylcyclohexanecarboxamide]	–
–	< 250	C[C@]1(C(N)=O)CC[C@@H](n2c(Nc3c(F)cc(F)cc3Cl)nc3cnc(NC4CCC(F)(F)CC4)nc32)CC1 [Example 527, (1s,4s)-4-(8-(2-chloro-4,6-difluorophenylamino)-2-(4,4-difluorocyclohexylamino)-9H-purin-9-yl)-1-methylcyclohexanecarboxamide]	–
> 1000	–	Cc1cc(Cl)c(Nc2nc3cnc(NC4CCOCC4)nc3n2[C@H]2CC[C@@H](C(N)=O)CC2)cc1C [Example 101, (1s,4s)-4-(8-(2-chloro-4,5-dimethylphenylamino)-2-(tetrahydro-2H-pyran-4-ylamino)-9H-purin-9-yl)cyclohexanecarboxamide]	–
> 1000	–	NC(=O)[C@H]1CC[C@@H](n2c(Nc3c(Cl)cc(F)cc3Cl)nc3cnc(N[C@H]4CCC[C@@H]4O)nc32)CC1 [Example 272, (1R,4s)-4-(8-(2,6-dichloro-4-fluorophenylamino)-2-((1S,2S)-2-hydroxycyclopentylamino)-9H-purin-9-yl)cyclohexanecarboxamide]	–
–	500 to 1000	COC(=O)N1CCC[C@@H](Nc2ncc3nc(Nc4c(Cl)cc(Cl)cc4Cl)n([C@H]4CC[C@@H](C(N)=O)CC4)c3n2)C1 [Example 409, (R)-methyl 3-(9-((1s,4S)-4-carbamoylcyclohexyl)-8-(2,4,6-trichlorophenylamino)-9H-purin-2-ylamino)piperidine-1-carboxylate]	–
–	–	NC(=O)[C@H]1CC[C@@H](n2c(Nc3c(Cl)cc(F)cc3Cl)nc3cnc(N[C@@H]4CCCN(Cc5ccccc5)C4)nc32)CC1 [Example 759, (1S,4s)-4-(2-((R)-1-benzylpiperidin-3-ylamino)-8-(2,6-dichloro-4-fluorophenylamino)-9H-purin-9-yl)cyclohexanecarboxamide]	IC50 [3]: > 1000 nM
–	500 to 1000	C[C@]1(C(N)=O)CC[C@H](n2c(Nc3c(F)cc(C#N)cc3Cl)nc3cnc(NC4CCCC4)nc32)CC1 [Example 486, (1r,4r)-4-(8-(2-chloro-4-cyano-6-fluorophenylamino)-2-(cyclopentylamino)-9H-purin-9-yl)-1-methylcyclohexanecarboxamide]	–
–	< 250	C[C@H]1COCC[C@H]1Nc1ncc2nc(Nc3c(Cl)cc(C#N)cc3Cl)n([C@H]3CC[C@@H](C(N)=O)CC3)c2n1 [Example 497, (1S,4s)-4-(8-(2,6-dichloro-4-cyanophenylamino)-2-((3R,4R)-3-methyltetrahydro-2H-pyran-4-ylamino)-9H-purin-9-yl)cyclohexanecarboxamide]	–
–	< 250	C[C@]1(C(N)=O)CC[C@@H](n2c(Nc3c(F)cc(C#N)cc3Cl)nc3cnc(NC4CCOCC4)nc32)CC1 [Example 525, (1s,4s)-4-(8-(2-chloro-4-cyano-6-fluorophenylamino)-2-(tetrahydro-2H-pyran-4-ylamino)-9H-purin-9-yl)-1-methylcyclohexanecarboxamide]	–
> 1000	–	NC(=O)[C@H]1CC[C@@H](n2c(Nc3c(F)cc(Cl)cc3F)nc3cnc(N[C@H]4CCCOC4)nc32)CC1 [Example 203, (1R,4s)-4-(8-(4-chloro-2,6-difluorophenylamino)-2-((S)-tetrahydro-2H-pyran-3-ylamino)-9H-purin-9-yl)cyclohexanecarboxamide]	–
–	< 250	C[C@]1(C(N)=O)CC[C@@H](n2c(Nc3c(F)cc(F)cc3F)nc3cnc(NC4CC(F)(F)C4)nc32)CC1 [Example 578, (1s,4s)-4-(2-(3,3-difluorocyclobutylamino)-8-(2,4,6-trifluorophenylamino)-9H-purin-9-yl)-1-methylcyclohexanecarboxamide]	–
–	–	NC(=O)[C@H]1CC[C@@H](n2c(Nc3c(F)cc(Cl)cc3F)nc3cnc(N[C@H]4CCOC[C@H]4F)nc32)CC1 [Example 672, (1R,4s)-4-(8-(4-chloro-2,6-difluorophenylamino)-2-((3S,4S)-3-fluorotetrahydro-2H-pyran-4-ylamino)-9H-purin-9-yl)cyclohexanecarboxamide]	IC50 [3]: < 250 nM
–	–	CC(C)OC(=O)N1CCC[C@@H](Nc2ncc3nc(Nc4c(F)cc(F)cc4Cl)n([C@H]4CC[C@@H](C(N)=O)CC4)c3n2)C1 [Example 767, (R)-isopropyl 3-(9-((1s,4S)-4-carbamoylcyclohexyl)-8-(2-chloro-4,6-difluorophenylamino)-9H-purin-2-ylamino)piperidine-1-carboxylate]	IC50 [3]: > 1000 nM
> 1000	–	NC(=O)[C@H]1CC[C@@H](n2c(Nc3c(F)cccc3F)nc3cnc(N[C@H]4CCC[C@@H]4O)nc32)CC1 [Example 267, (1R,4s)-4-(8-(2,6-difluorophenylamino)-2-((1S,2S)-2-hydroxycyclopentylamino)-9H-purin-9-yl)cyclohexanecarboxamide]	–
–	–	NC(=O)[C@H]1CC[C@@H](n2c(Nc3c(F)cc(F)cc3F)nc3cnc(N[C@@H]4CCCN(c5ccccc5)C4)nc32)CC1 [Example 746, (1S,4s)-4-(2-((R)-1-phenylpiperidin-3-ylamino)-8-(2,4,6-trifluorophenylamino)-9H-purin-9-yl)cyclohexanecarboxamide]	IC50 [3]: > 1000 nM
500 to 1000	–	NC(=O)[C@H]1CC[C@@H](n2c(Nc3ccc(F)c(F)c3F)nc3cnc(NC4CCOCC4)nc32)CC1 [Example 66, (1s,4s)-4-(2-(tetrahydro-2H-pyran-4-ylamino)-8-(2,3,4-trifluorophenylamino)-9H-purin-9-yl)cyclohexanecarboxamide]	–
–	–	Cc1ccc(S(=O)(=O)N2CCC[C@@H](Nc3ncc4nc(Nc5c(F)cc(F)cc5Cl)n([C@H]5CC[C@@H](C(N)=O)CC5)c4n3)C2)cc1 [Example 787, (1S,4s)-4-(8-(2-chloro-4,6-difluorophenylamino)-2-((R)-1-tosylpiperidin-3-ylamino)-9H-purin-9-yl)cyclohexanecarboxamide]	IC50 [3]: > 1000 nM
> 1000	–	NC(=O)[C@H]1CC[C@@H](n2c(Nc3c(Cl)cc(F)cc3Cl)nc3cnc(NC4CC(F)(F)C4)nc32)CC1 [Example 231, (1s,4s)-4-(8-(2,6-dichloro-4-fluorophenylamino)-2-(3,3-difluorocyclobutylamino)-9H-purin-9-yl)cyclohexanecarboxamide]	–
